Assay results taken from patent publication US7404943B2, “Methods for solubilizing and recovering fluorinated compounds” (The Regents of the University of California, priority 2001, dated 2008).

Test: Visual observation of solubility in organic solvent with and without CO2 pressure (windowed vessel)
Format: physicochemical
Settings: 35° C.; for solubility in cyclohexane / solubility in CO2-expanded cyclohexane: 64 mg in 5 mL cyclohexane; for solubility in cyclohexane: 1 atm CO2, visual; for solubility in CO2-expanded cyclohexane: CO2 pressure 59 bar
Description: The bis(methanol) adduct of complex 2 (Rh2(O2C(CF2)9F)4(MeOH)2, 64 mg) was placed in a windowed vessel along with a stir bar and 5 mL of cyclohexane, all at 35° C. […] The CO2 under these conditions is not supercritical and in the absence of the cyclohexane would not be liquid. […] When the CO2 pressure was released (slowly, so that the solvent was not lost by entrainment), then the liquid phase returned to its original volume and colour and the complex precipitated. The IR spectrum of the solid was identical to that of the original Rh2(O2C(CF2)9F)4(MeOH)2.
The IR spectrum of the complex after precipitation is identical to that of the starting material. […] For example, complex 3 was insoluble in toluene at 26° C., dissolved in CO2-expanded toluene at 54 bar CO2 and was subsequently precipitated after CO2 release.

[1] = listed as Rh2(O2C(CF2)9F)4(MeOH)2

In the case of CO.CO.O=C([O-])C(F)(F)C(F)(F)C(F)(F)C(F)(F)C(F)(F)C(F)(F)C(F)(F)C(F)(F)C(F)(F)F.O=C([O-])C(F)(F)C(F)(F)C(F)(F)C(F)(F)C(F)(F)C(F)(F)C(F)(F)C(F)(F)C(F)(F)F.O=C([O-])C(F)(F)C(F)(F)C(F)(F)C(F)(F)C(F)(F)C(F)(F)C(F)(F)C(F)(F)C(F)(F)F.O=C([O-])C(F)(F)C(F)(F)C(F)(F)C(F)(F)C(F)(F)C(F)(F)C(F)(F)C(F)(F)C(F)(F)F.[Rh+3].[Rh+3] [bis(methanol) adduct of complex 2, Rh2(O2C(CF2)9F)4(MeOH)2], the solubility in cyclohexane is reported as “completely insoluble”, the solubility in cyclohexane [1] is reported as “insoluble” and the “solubility in CO2-expanded cyclohexane” value is reported as “complete dissolution”. For the same compound, the “solubility in CO2-expanded cyclohexane” value [1] was “dissolves readily” and the “solubility in gaseous CO2 (upper phase)” value (59 bar CO2, upper gaseous phase showed no discoloration) was “no solubility”.
